{
  "source": "patent US20190208766A1",
  "about": "“COMPOSITION FOR THE CONSERVATION/FIXATION OF BIOLOGICAL MATERIAL” (priority 2016, published 2019)",
  "origin": "cited, not measured here",
  "tested_on": "airways",
  "conditions": "in vivo",
  "data": [
    {"smiles": "C=O", "note": "[formaldehyde]", "values": [
      {"measurement": "concentration causing sense of suffocation", "value": "greater than 10 ppm"},
      {"measurement": "exposure that can lead to pulmonary edema", "value": "greater than 20 ppm"}
    ]}
  ]
}
